Source: patent publication US20230190760A1, “ADVANTAGEOUS THERAPIES FOR DISORDERS MEDIATED BY IKAROS OR AIOLOS” (C4 Therapeutics, Inc., priority 2020, published 2023)

Tests used:
NCIH929 cells = assay: NCI-H929 viability assay (CellTiter-Glo)
Protocol: NCIH929 cell viability was determined based on quantification of ATP using CellTiter-Glo®2.0 luminescent Assay kit, which signals the presence of metabolically-active cells. Briefly, test compound was added to 384-well plates at a top concentration of 1 μM with 10 points, half log titration in duplicates. NCIH929 cells were seeded into the 384-well plates in RPMI medium containing 10% FBS and 0.05 mM 2-mercaptoethanol at a cell density of 750 cells per well. Cells treated in the absence of the test compound were the negative control and cells treated in the absence of CellTiter-Glo® 2.0 were the positive control. Cells treated with the test compounds were incubated at 37° C. with 5% CO2 for 96 hr. CellTiter-Glo reagent was then added to the cells and Luminescence was acquired on EnVision™ Multilabel Reader (PerkinElmer, Santa Clara, Calif., USA). % Viability was determined by normalizing the signal with positive and DMSO treated negative controls on the same microtiter plate. […] Curve fit and IC502 determination was performed by 4 parametric regression analysis.

IKZF1 [1] = target: IKZF1 (Homo sapiens, UniProt Q13422+Q96SW2)
Protocol: Endogenous expression of IKZF1 in NCIH929 cells was determined by addition of N-terminal HiBiT tag to the NCIH929 cell line using CRISPR-Cas9. Briefly, test compound was added to 384-well plates at a top concentration of 1 μM with 10 points, half log titration in duplicates. NCIH929 cells expressing HiBiT-tagged IKZF1 were seeded into the 384-well plates in RPMI medium containing 10% FBS and 0.05 mM 2-mercaptoethanol at a cell density of 15000 cells per well. Cells treated in the absence of the test compound were the negative control and wells containing media only were the positive control. Following compound treatment, cells were incubated at 37° C. with 5% CO2 for 1.5 hr. HiBiT signal was determined using Nano-Glo™ HiBiT Lytic Assay System (Promega, N3050) and luminescence was acquired on EnVision™ Multilabel Reader (PerkinElmer, Santa Clara, Calif., USA). % IKZF1 remaining was determined by normalizing the signal with positive and negative controls on the same microtiter plate. […] Curve fit and IC50 determination was performed by 4 parametric regression analysis.
NCIH929 cells expressing HiBiT-tagged IKZF1 were seeded into the 384-well plates in RPMI medium containing 10% FBS and 0.05 mM 2-mercaptoethanol at a cell density of 15000 cells per well. Cells treated in the absence of the test compound were the negative control and wells containing media only were the positive control. Following compound treatment, cells were incubated at 37° C. with 5% CO2 for 1 or 2 hr. HiBiT signal was determined using Nano-Glo™ HiBiT Lytic Assay System (Promega, N3050) and luminescence was acquired on EnVision™ Multilabel Reader (PerkinElmer, Santa Clara, Calif., USA). % IKZF1 remaining was determined by normalizing the signal with positive and negative controls on the same microtiter plate. Curve fit and IC50 determination was performed by 4 parametric regression analysis.

HuT 102 = assay: Anti-proliferative activity, 96 hours; details: HuT-102, 96 h
Farage = assay: Anti-proliferative activity, 96 hours
TMD8 DLBCL tumors = assay: TMD8 DLBCL xenograft, NOD SCID mice; type: in vivo
Protocol: A xenograft study was also conducted in female NOD SCID mice bearing TMD8 DLBCL tumors.
(§1) Statistical analysis was performed using two-way analysis of variance (ANOVA). Data are expressed as MTV±SEM.

[2] = system: NCI-H929 multiple myeloma tumors; assay: NCI-H929 multiple myeloma xenograft, NOD SCID mice (Example 13); type: in vivo
Protocol: Compound 1 efficacy in two multiple myeloma cell lines (NC-H929) and (RPMI-8226) was evaluated at four different doses: 3 μg/kg, 10 μg/kg, 30 μg/kg, and 100 μg/kg. Compound 1 was administered QD (every day) orally (PO). […]
For the NCI-H929 cells, the xenograft study was conducted in female NOD SCID mice bearing NCI-H929 multiple myeloma tumors.
as §1

IKZF1 and IRF-4 = assay: KI-JK ALCL tumor pharmacodynamic study, western blot (Example 17); type: in vivo, mice; details: single dose, 6-hour and 24-hour timepoint
Protocol: A pharmacodynamic study was also conducted in female NOD SCID mice bearing KI-JK ALCL tumors. […] Once tumors reached a volume of 450 mm^3 they were stratified into 3 treatment groups, consisting of 4 mice each.
Mice were sacrificed and tumors harvested at 6 and 24 hours post single dose. Tumors were mechanically homogenized, and protein extracted using RIPA buffer (Sigma Aldrich). Protein concentration was quantified using a Pierce™ BCA Protein Assay Kit, samples were reduced, and equal protein amounts were then loaded onto a western blot gel for analysis. Samples were analyzed for IKZF1 (Invitrogen, PA5-23728) and IRF-4 (CST, 15106) expression. Data is expressed as percentage of IKZF1 or IRF-4 in comparison to the vehicle control and normalized to GAPDH levels to control for protein loading. Error bars represent ±SEM values.

[3] = Plasma PK and interconversion in rat; type: in vivo; details: Compound 1 30 mg/kg PO
Protocol: Compound 1 was administered to a rat at a concentration of 30 mg/kg PO and monkeys at a concentration of either 60 μg/kg or 100 μg/kg PO. At the indicated timepoints shown in FIG. 25A and FIG. 25B, plasma samples were collected and the Cmax, half-life, and AUC0-inf were determined for both Compound 1 and a metabolite of Compound 1, Compound 14. The percent of Compound 14 was also determined (Table 13). PK values dose normalized to 1 mg/kg. FIG. 25A is a graph measuring the concentration of Compound 1 or Compound 14 over the course of 24 hours in monkeys administered 100 μg/kg or 60 μg/kg of Compound 1. FIG. 25B is a graph measuring the concentration of Compound 1 or Compound 14 over the course of 24 hours in a rat administered 30 mg/kg of Compound 1.

SU-DHL-1 = assay: Anti-proliferative activity, 96 hours; details: Homo sapiens, SU-DHL-1, 96 h
[4] = system: IMiD-resistant NCIH929 cells; assay: Growth of IMiD-resistant NCIH929 cells (CellTiter-Glo)
Protocol: Briefly, test compound was added to 384-well plates at a top concentration of 10 μM with 14 points, half log titration in duplicates. NCIH929 cells were seeded into the 384-well plates in RPMI medium containing 10% FBS and 0.05 mM 2-mercaptoethanol at a cell density of 750 cells per well. Cells treated in the absence of the test compound were the negative control and cells treated in the absence of CellTiter-Glo® 2.0 were the positive control. Cells treated with the test compounds were incubated at 37° C. with 5% CO2 for 96 hr. CellTiter-Glo reagent was then added to the cells and luminescence was acquired on EnVision™ Multilabel Reader (PerkinElmer, Santa Clara, Calif., USA). % Viability was determined by normalizing the signal with positive and DMSO treated negative controls on the same microtiter plate.

SU-DHL-2 = assay: Anti-proliferative activity, 96 hours; details: Homo sapiens, SU-DHL-2, 96 h
H929 PomR tumors = assay: Pomalidomide resistant H929 PomR xenograft; type: in vivo, mice; details: 100 μg/kg/day PO
Text: Data are expressed as MTV±SEM.

LP-1 = assay: Anti-proliferative activity, 96 hours; details: Homo sapiens, LP-1, 96 h
DL-40 ALCL tumors = assay: DL-40 ALCL xenograft efficacy (Example 19); type: in vivo, mice
Protocol: A xenograft study was conducted in female NOD SCID mice bearing DL-40 ALCL tumors. […]

Mino = assay: Anti-proliferative activity, 96 hours; details: Homo sapiens
IKZF1 [5] = target: T1, IKZF1 (Mus musculus, UniProt Q03267); assay: Ex vivo IKZF1 degradation in PBMC, mouse; type: cell-based; details: mouse cells
T1 construct: from tissue; host or cells: peripheral blood cells (PBMC) of mice, ex vivo
Protocol: IKZF1/3 are not degraded in mouse cells treated with thalidomide or its IMiD® analogs because of a single amino acid difference in mouse cereblon compared to human cereblon that causes steric hindrance and prevents recruitment of IKZF1/3. Ex vivo studies were performed in peripheral blood cells (PBMC) of mice, rats, dogs, and monkeys to identify relevant species for IND enabling-toxicity studies based on the degree of IKZF1 degradation by Compound 1. IKZF1 was not degraded in mouse or rat cells by Compound 1, thus, while rat could not be considered a pharmacologically relevant species for human risk assessment, it was chosen as the rodent species for toxicological studies because it is widely used in toxicity testing and a substantial historical toxicology database is available. […] Therefore, cynomolgus monkey was chosen for non-rodent toxicological studies.

[6] = system: mantel cell lymphoma (MCL) cell lines; assay: Anti-cancer activity in MCL cell lines; type: cell-based; details: four of six lines tested were responsive; read-out: mean IC50 among the responsive lines
RL = assay: Anti-proliferative activity, 96 hours; details: Homo sapiens

Chain of IKZF1 (Homo sapiens, UniProt Q13422+Q96SW2) (Q13422 whole entry): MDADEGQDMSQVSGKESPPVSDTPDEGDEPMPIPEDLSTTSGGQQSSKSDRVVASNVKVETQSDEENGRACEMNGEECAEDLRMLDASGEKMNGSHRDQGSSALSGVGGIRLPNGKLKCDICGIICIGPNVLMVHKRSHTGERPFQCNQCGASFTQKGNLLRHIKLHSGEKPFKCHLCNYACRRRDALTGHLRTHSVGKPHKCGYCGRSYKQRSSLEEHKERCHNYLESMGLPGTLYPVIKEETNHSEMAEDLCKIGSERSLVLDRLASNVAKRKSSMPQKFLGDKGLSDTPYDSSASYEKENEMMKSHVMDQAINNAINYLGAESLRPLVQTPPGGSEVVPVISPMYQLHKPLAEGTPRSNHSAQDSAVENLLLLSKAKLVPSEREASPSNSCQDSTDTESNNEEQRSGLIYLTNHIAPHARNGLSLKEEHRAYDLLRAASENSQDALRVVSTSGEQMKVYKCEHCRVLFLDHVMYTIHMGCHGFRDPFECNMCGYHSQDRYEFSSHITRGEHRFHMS
Chain of IKZF1 (Homo sapiens, UniProt Q13422+Q96SW2) (Q96SW2 whole entry): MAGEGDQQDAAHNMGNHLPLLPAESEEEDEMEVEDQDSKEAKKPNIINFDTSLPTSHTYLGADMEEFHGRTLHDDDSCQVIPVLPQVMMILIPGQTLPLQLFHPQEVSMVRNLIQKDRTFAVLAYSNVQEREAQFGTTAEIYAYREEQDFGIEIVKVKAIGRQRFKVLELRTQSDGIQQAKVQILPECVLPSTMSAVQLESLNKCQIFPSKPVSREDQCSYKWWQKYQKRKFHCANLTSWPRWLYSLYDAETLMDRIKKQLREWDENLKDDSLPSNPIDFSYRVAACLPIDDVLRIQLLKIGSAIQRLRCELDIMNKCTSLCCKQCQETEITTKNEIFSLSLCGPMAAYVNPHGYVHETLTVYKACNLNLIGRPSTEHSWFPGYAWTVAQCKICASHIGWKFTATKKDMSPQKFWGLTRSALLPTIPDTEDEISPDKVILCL
Chain of IKZF1 (Homo sapiens, UniProt Q13422+Q96SW2) (Q16531 2-1140 partner limits assumed): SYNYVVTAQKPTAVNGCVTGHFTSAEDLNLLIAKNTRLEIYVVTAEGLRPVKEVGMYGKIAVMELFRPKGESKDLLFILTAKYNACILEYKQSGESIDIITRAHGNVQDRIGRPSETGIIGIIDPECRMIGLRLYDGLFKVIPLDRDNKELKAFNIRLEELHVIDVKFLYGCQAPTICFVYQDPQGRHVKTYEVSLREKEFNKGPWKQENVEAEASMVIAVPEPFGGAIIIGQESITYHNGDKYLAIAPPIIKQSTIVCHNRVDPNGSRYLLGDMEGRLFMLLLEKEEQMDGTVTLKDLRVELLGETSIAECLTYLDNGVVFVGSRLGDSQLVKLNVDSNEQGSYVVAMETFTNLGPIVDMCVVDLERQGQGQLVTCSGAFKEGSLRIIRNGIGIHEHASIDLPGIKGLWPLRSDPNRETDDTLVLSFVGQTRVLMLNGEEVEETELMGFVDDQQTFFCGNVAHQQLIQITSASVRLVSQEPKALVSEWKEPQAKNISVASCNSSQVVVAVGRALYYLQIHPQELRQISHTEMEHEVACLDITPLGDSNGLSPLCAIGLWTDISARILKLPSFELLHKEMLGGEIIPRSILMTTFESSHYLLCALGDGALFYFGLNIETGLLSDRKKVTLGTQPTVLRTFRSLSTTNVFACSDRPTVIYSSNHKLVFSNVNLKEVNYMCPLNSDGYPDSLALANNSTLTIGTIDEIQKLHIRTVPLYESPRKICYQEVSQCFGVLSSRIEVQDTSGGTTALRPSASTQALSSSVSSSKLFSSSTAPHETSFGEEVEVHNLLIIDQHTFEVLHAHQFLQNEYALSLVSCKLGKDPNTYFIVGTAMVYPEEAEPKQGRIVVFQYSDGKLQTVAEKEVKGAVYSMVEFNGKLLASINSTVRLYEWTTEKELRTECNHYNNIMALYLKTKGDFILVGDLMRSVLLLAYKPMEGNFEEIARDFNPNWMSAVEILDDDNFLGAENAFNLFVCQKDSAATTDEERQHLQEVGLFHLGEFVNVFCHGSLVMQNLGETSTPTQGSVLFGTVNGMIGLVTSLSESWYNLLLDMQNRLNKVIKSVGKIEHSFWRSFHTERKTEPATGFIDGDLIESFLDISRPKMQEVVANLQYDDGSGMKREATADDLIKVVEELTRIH
T1 sequence (Q8C7D2 whole entry partner): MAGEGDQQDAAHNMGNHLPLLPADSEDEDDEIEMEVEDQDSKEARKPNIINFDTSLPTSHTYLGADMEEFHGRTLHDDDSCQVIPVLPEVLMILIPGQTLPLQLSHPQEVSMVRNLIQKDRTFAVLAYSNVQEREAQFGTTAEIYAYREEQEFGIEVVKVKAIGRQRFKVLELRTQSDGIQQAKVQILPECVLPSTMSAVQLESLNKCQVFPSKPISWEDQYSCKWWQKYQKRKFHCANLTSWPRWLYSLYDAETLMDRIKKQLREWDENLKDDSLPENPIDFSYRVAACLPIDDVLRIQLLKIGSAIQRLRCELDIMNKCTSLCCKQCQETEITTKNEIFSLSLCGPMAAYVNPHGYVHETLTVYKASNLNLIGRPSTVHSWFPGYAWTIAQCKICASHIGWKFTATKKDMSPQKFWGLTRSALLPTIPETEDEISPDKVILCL
T1 sequence (Q3U1J4 2-1140 partner limits assumed): as the sequence (Q16531 2-1140 partner limits assumed) above, with N417G, A494G, T744S, T1019A counted along it
T1 sequence (Q03267 whole entry): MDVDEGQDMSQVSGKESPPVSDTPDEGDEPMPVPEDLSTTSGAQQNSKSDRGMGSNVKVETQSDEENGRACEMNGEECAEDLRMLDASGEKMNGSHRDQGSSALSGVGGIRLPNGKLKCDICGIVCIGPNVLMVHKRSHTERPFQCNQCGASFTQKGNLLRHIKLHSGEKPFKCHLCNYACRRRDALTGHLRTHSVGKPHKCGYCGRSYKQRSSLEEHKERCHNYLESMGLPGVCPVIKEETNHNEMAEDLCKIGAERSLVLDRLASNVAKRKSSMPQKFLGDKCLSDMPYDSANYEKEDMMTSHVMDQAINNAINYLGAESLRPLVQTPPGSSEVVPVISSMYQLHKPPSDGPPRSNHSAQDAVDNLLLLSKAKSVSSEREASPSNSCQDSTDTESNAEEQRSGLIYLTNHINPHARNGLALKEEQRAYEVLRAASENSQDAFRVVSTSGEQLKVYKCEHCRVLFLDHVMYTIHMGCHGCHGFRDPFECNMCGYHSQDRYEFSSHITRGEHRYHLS

For O=C1CC[C@H](N2C(=O)c3cccc4c(Cc5ccc(CN6CCOCC6)cc5)ccc2c34)C(=O)N1 (single isomer, unassigned) [Compound 1], the “Mean Emax (%) ± SD, H929 Viability” value (NCIH929 cells; 96 hours, % viability) was 4.0 ± 0.5%, the maximal growth inhibition (NCIH929 cells; previously untreated NCIH929) was 96% and the IC50 (NCIH929 cells; read-out: Mean IC50 (nM), H929 Viability, 96 hours) was 0.071 nM. It also gave a DC50 (IKZF1 [1]; 2 hour treatment) of 0.021 nM, an Emax (IKZF1 [1]; NCI-H929, read-out: Mean Emax (%) ± SD, IKZF1 Degradation) of 22.4 ± 3.1% and a Dmax (IKZF1 [1]; NCI-H929, read-out: maximal degradation of IKZF1) greater than 80%. The IKZF1 degradation (IKZF1 [1]; after 1 hour treatment) was 50%, the “potency greater than pomalidomide” value (IKZF1 [1]; at 2 hr) was greater than 2000 fold and the “degradation of steady state IKZF1” value (IKZF1 [1]; multiple myeloma cells, within 1.5 hours at 0.3 nM) was greater than 75%. The IC50 (HuT 102) was 15.4 nM, the IC50 (Farage) was 56.3 nM and the “Statistical Significance Compared to Vehicle” value (TMD8 DLBCL tumors; 100 μg/kg PO daily) was less than 0.0001. For the same molecule, the tumor volume (TMD8 DLBCL tumors; Compound 1 100 μg/kg, pomalidomide 3000 μg/kg, 18 days) was “decreased”, the “Statistical Significance Compared to Vehicle” value ([2]; 3 μg/kg PO QD) was 0.04 and the “Statistical Significance Compared to Vehicle” value ([2]; 10 μg/kg PO QD) was 0.0002. The “Statistical Significance Compared to Vehicle” value ([2]; 30 μg/kg PO QD) was 0.0004, the “Statistical Significance Compared to Vehicle” value ([2]; 100 μg/kg PO QD) was 0.0004 and the “tumor volume versus pomalidomide 3000 μg/kg” value ([2]; 3, 10, 30 and 100 μg/kg, NCI-H929 and RPMI-8226) was “reduced tumor volume more than pomalidomide”. For the same molecule, the “percentage of IKZF1 and IRF-4 compared to pomalidomide” value (IKZF1 and IRF-4) was “smaller”, the AUC(0-inf) ([3]; dose normalized to 1 mg/kg) was 784 ng·h/mL and the Cmax ([3]; dose normalized to 1 mg/kg) was 110 ng/mL. It also gave a half-life ([3]; read-out: T ½ (converted)) of 2.3 h, an IC50 (SU-DHL-1) of 0.415 nM and a maximal inhibition ([4]; 96 hours) of 70%. For the same molecule, the IC50 ([4]; Homo sapiens, NCI-H929, 96 h) was 2.3 nM, the IC50 (SU-DHL-2) was 4.55 nM and the “tumors versus pomalidomide 3000 μg/kg/day” value (H929 PomR tumors) was “smaller”. For the same molecule, the IC50 (LP-1) was 0.642 nM, the “Statistical Significance Compared to Vehicle” value (DL-40 ALCL tumors; 3 μg/kg PO daily) was 0.0111 and the “Statistical Significance Compared to Vehicle” value (DL-40 ALCL tumors; 10 μg/kg PO daily) was 0.0006. The “Statistical Significance Compared to Vehicle” value (DL-40 ALCL tumors; 30 μg/kg PO daily) was 0.0004, the “Statistical Significance Compared to Vehicle” value (DL-40 ALCL tumors; 100 μg/kg PO daily) was 0.0004 and the “Statistical Significance Compared to Vehicle” value (DL-40 ALCL tumors; 300 μg/kg PO daily) was 0.0004. The tumor volume (DL-40 ALCL tumors; 30, 100, and 300 μg/kg, 21 days) was “able to reduce tumor volume”, the IC50 (Mino) was 0.194 nM and the IKZF1 degradation (IKZF1 [5]) was “not degraded”. For the same molecule, the IC50 [6] was 13 nM and the IC50 (RL) was 2.32 nM.
